The source of these data is patent publication US5872126A, “Methods and compositions for treating preterm labor” (priority 1997, dated 1999).

The test system of this assay is parturition in the rat. The experiment in a line: Parturition after termination of drug treatment on GD 17, 19 or 20 (Example 2). Conditions: 20 mg/kg/day; for Mean Length of Gestation ± SD: in days (unit assumed). In kind it is in vivo, Sprague-Dawley rat. The source says:
In order to determine if termination of drug treatment with the 5α-reductase type 1 inhibitor 3-oxo-4-aza-4,7β-dimethyl-16β-(4-chlorophenoxy)-5α-androstane ("test compound") on GD 17, 19 or 20 would allow the 3-oxo-4-aza-4,7β-dimethyl-16β-(4-chlorophenoxy)-5α-androstane-treated pregnant females to initiate and complete parturition, Sprague-Dawley rats (Charles River Laboratories, Raleigh, N.C.) were approximately ten weeks of age and weighted 223 to 276 grams on Gestation Day 0 (GD 0, the day of finding copulatory plugs). The design of the study is as described below. All animals were housed and fed as described in Example 1, with the exception of a 1 hour transient electrical failure, during which power outage dim illumination was provided by emergency backup lighting.
A dose of 20 mg/kg/day of the test compound was given once daily by oral gavage to the three treatment groups of 10 mated females each, designated by the treatment interval (GD 6-17, GD 6-19, and GD 6-20), at a dose volume of 5 mL/kg. (GD 6-17 received treatment from Gestational Day 6 through 17, etc.) An additional group of 10 females similarly received the vehicle (0.5% methylcellulose in deionized water with 0.02% sodium lauryl sulfate (SLS)) on GD 6-20 and served as the control.

In the case of `C[C@H]1C[C@H]2N(C)C(=O)CC[C@]2(C)[C@H]2CC[C@]3(C)C[C@@H](Oc4ccc(Cl)cc4)C[C@H]3[C@H]12` [test compound, 3-oxo-4-aza-4,7β-dimethyl-16β-(4-chlorophenoxy)-5α-androstane], under “all dosing intervals”, the “length of gestation relative to controls” value is “increases in the length of gestation”. Besides, the “number of pregnant females completing parturition” value (from here on “number”) amounted to 3 (dosed GD 6-17, delivery day GD 22.0); 1 (dosed GD 6-17, delivery day GD 22.5); 6 (dosed GD 6-17, delivery day GD 23.0); 1 (dosed GD 6-19, delivery day GD 22.0); 3 (dosed GD 6-19, delivery day GD 22.5); 4 (dosed GD 6-19, delivery day GD 23.0). Moreover, the “number” value (dosed GD 6-19, delivery day GD 23.5) was 1; the “number” value (dosed GD 6-20, delivery day GD 23.0) was determined as 5; the “number” value (dosed GD 6-20, delivery day GD 24) is listed as 2. Also, the “Mean Length of Gestation ± SD” value turned out to be 22.6 ± 0.5 (dosed GD 6-17), 22.8 ± 0.4 (dosed GD 6-19) and 23.3 ± 0.5 (dosed GD 6-20). For the same molecule, the “Sacrificed GD 24 due to failure to initiate or complete parturition” value reads like this: (dosed GD 6-19) 1; (dosed GD 6-20) 2. Moreover, the “pregnant females that failed to initiate or complete delivery (fraction)” value runs as follows: (dosed GD 6-19) 1/10; (dosed GD 6-20) 2/9.
